In patent US5608047A, “Cyclic ADP-ribose and analogs” (Wisconsin Alumni Research Foundation, priority 1995, dated 1997):

Tested on: rat brain microsomes
Assay: Ca2+ release measurement with fluo-3 in rat brain microsomes
Assay type: biochemical
Conditions: for EC50: extramicrosomal Ca2+ by fluo-3, read-out: ED50 of Ca^2+ release
Method: Ca^2+ release measurements as follows: Rat brain microsomes were prepared on the day of the experiment. Loading of the microsomes with Ca^2+ took approximately 30 minutes at 24° C. and was used at a protein concentration of 0.5 mg/ml. The free Ca^2+ used for Ca^2+ loading was 0.5 to 2 uM and was present in the loading solution as a contaminant. Ca^2+ uptake and release was followed by measuring extramicrosomal Ca^2+ using fluo-3 (Cal-Biochem) (1 uM). Fluorescence intensity of fluo-3 was measured at excitation and emission wavelength of 490 and 535 nm respectively. Fluorimetry was performed on 500 ul aliquots of microsomes using a Perkin Elmer MF-3. Additions were made in volumes of 1-5 ul and all chemicals were added in incubation medium containing 10 uM EGTA. Ca^2+ traces were calibrated by adding Ca^2+ standard solution.
Ca^2+ release measurements were done as outlined in Example 1.

Row | EC50 [nM] | Molecule | Ca^2+ release caused by the substance | other results
1 | – | Nc1ncnc2c1ncn2[C@@H]1O[C@H](COP(=O)(O)OP(=O)(O)OC[C@H]2OC(O)[C@H](O)[C@@H]2O)[C@@H](O)[C@H]1O (stereo partly shown) [ADPR, ADP-ribose] | caused no Ca^2+ release | –
2 | 100 | N=c1c2ncn3c2ncn1[C@@H]1O[C@H](COP(=O)(O)OP(=O)(O)OC[C@H]2O[C@@H]3[C@H](O)[C@@H]2O)[C@@H](O)[C@H]1O [cADPR, cyclic ADP-ribose] | – | –
3 | 5 | N=c1c2ncn3c2ncn1[C@@H]1O[C@H](COP(=O)(O)OP(=O)(O)OP(=O)(O)OC[C@H]2O[C@@H]3[C@H](O)[C@@H]2O)[C@@H](O)[C@H]1O [cATPR, cycle ATP-ribose] | – | potency relative to cADPR (times more potent) (ratio of ED50 values): approximately 20 times
4 | – | NC(=O)c1ccc[n+]([C@@H]2O[C@H](COP(=O)([O-])OP(=O)(O)OC[C@H]3O[C@@H](n4cnc5c(N)ncnc54)[C@H](O)[C@@H]3O)[C@@H](O)[C@H]2O)c1 [β-NAD] | caused no Ca^2+ release | –
5 | – | heparin | – | effect on Ca^2+ release induced by IP3 (release induced by IP3): blocked Ca^2+ release induced by IP3
6 | – | ryanodine | – | effect on Ca^2+ release induced by cADPR (release induced by cADPR): inhibited release of Ca^2+ by cADPR
